Data as given in ChEMBL document CHEMBL5257035, “Nucleoside Derived Antibiotics to Fight Microbial Drug Resistance: New Utilities for an Established Class of Drugs?” (J Med Chem, 2016).
Converted amounts (≈) assume the structure as drawn.

Experiments:
Pseudomonas aeruginosa [1] = assay: Antibacterial activity against Pseudomonas aeruginosa assessed as bacterial growth inhibition; type: functional
Pseudomonas aeruginosa [2] = assay: Antibacterial activity against beta-lactam resistant Pseudomonas aeruginosa assessed as bacterial growth inhibition; type: functional
[3] = Inhibition of Escherichia coli topoisomerase 4
[4] = Inhibition of GMP synthase (unknown origin); set-up: species or system Homo sapiens
[5] = tested on: Staphylococcus saprophyticus; assay: Antibacterial activity against Staphylococcus saprophyticus ATCC 15305 assessed as bacterial growth inhibition after 20 hrs by CLSI based-broth microdilution method; type: functional
Streptococcus pneumoniae [6] = assay: Antibacterial activity against Streptococcus pneumoniae B1 assessed as bacterial growth inhibition incubated for 24 hrs by micro-broth dilution method; type: functional
Enterococcus faecium [7] = assay: Antibacterial activity against Enterococcus faecium assessed as bacterial growth inhibition incubated for 24 hrs by micro-broth dilution method; type: functional
Streptococcus pyogenes [8] = assay: Antibacterial activity against Streptococcus pyogenes assessed as bacterial growth inhibition incubated for 24 hrs by micro-broth dilution method; type: functional
Staphylococcus aureus [9] = assay: Antibacterial activity against Staphylococcus aureus ATCC 25923 assessed as bacterial growth inhibition measured after 18 hrs by CLSI protocol based two-fold serial microdilution method; type: functional
Moraxella catarrhalis = assay: Antibacterial activity against Moraxella catarrhalis assessed as bacterial growth inhibition incubated for 24 hrs by micro-broth dilution method; type: functional
Haemophilus influenzae = assay: Antibacterial activity against Haemophilus influenzae assessed as bacterial growth inhibition incubated for 24 hrs by micro-broth dilution method; type: functional
Enterococcus faecalis = assay: Antibacterial activity against Enterococcus faecalis assessed as bacterial growth inhibition incubated for 24 hrs by micro-broth dilution method; type: functional
[10] = tested on: Staphylococcus epidermidis; assay: Antibacterial activity against Staphylococcus epidermidis ATCC 12228 assessed as microbial growth inhibition incubated for 24 hrs; type: functional
Bacillus subtilis [11] = assay: Antibacterial activity against Bacillus subtilis assessed as bacterial growth inhibition incubated for 24 hrs by micro-broth dilution method; type: functional
Klebsiella pneumoniae [12] = assay: Antibacterial activity against Klebsiella pneumoniae assessed as bacterial growth inhibition incubated for 24 hrs by micro-broth dilution method; type: functional
[13] = tested on: Mycolicibacterium smegmatis; assay: Antimycobacterial activity against Mycobacterium smegmatis SG 125A assessed as inhibition of bacterial growth; type: functional
Bacillus subtilis [14] = assay: Antibacterial activity against Bacillus subtilis ATCC 6633 assessed as bacterial growth inhibition by agar diffusion method; type: functional
[15] = tested on: Mycobacterium tuberculosis; assay: Antimycobacterial activity against Mycobacterium tuberculosis H37Rv assessed as inhibition of bacterial growth; type: functional
Bacillus subtilis [16] = assay: Antibacterial activity against Bacillus subtilis ATCC 6633 assessed as reduction in bacterial cell growth; type: functional
[17] = Toxicity in rat; conditions: in vivo
Klebsiella pneumoniae [18] = assay: Antibacterial activity against Klebsiella pneumoniae assessed as bacterial growth inhibition; type: functional
[19] = Binding affinity to Escherichia coli methionyl adenylate synthetase
Bacillus cereus = assay: Antibacterial activity against Bacillus cereus ATCC 11778 assessed as bacterial growth inhibition; type: functional
Escherichia coli = assay: Antibacterial activity against Escherichia coli K12 assessed as bacterial growth inhibition measured after 24 hrs by micro broth dilution method; type: functional
Pseudomonas aeruginosa [20] = assay: Antibacterial activity against Pseudomonas aeruginosa assessed as inhibition of bacterial growth incubated for 24 hrs by broth microdilution method; type: functional
Pseudomonas aeruginosa [21] = assay: Antibacterial activity against Pseudomonas aeruginosa ATCC 15442 assessed as bacterial growth inhibition measured after 48 hrs by micro-broth dilution method; type: functional
[22] = tested on: Mycobacterium tuberculosis; assay: Antimycobacterial activity against Mycobacterium tuberculosis K4 assessed as reduction in bacterial activity; type: functional
Streptococcus pyogenes [23] = assay: Antimicrobial activity against Streptococcus pyogenes ATCC 12344 assessed as reduction in microbial growth by broth microdilution method; type: functional
Staphylococcus aureus [24] = assay: Antimicrobial activity against methicillin-resistant Staphylococcus aureus 10925 assessed as reduction in microbial growth by broth microdilution method; type: functional
Enterococcus faecium [25] = assay: Antimicrobial activity against Enterococcus faecium ATCC 19434 assessed as reduction in microbial growth by broth microdilution method; type: functional
Mycobacterium avium [26] = assay: Antimycobacterial activity against Mycobacterium avium ATCC 25291 assessed as bacterial growth inhibition; type: functional
Glutamine--tRNA ligase = Glutamine--tRNA ligase (Escherichia coli (strain K12), UniProt P00962); assay: Binding affinity to Escherichia coli K12 glutaminyl-tRNA synthetase assessed as inhibition constant
Sequence of Glutamine--tRNA ligase (P00962 whole entry): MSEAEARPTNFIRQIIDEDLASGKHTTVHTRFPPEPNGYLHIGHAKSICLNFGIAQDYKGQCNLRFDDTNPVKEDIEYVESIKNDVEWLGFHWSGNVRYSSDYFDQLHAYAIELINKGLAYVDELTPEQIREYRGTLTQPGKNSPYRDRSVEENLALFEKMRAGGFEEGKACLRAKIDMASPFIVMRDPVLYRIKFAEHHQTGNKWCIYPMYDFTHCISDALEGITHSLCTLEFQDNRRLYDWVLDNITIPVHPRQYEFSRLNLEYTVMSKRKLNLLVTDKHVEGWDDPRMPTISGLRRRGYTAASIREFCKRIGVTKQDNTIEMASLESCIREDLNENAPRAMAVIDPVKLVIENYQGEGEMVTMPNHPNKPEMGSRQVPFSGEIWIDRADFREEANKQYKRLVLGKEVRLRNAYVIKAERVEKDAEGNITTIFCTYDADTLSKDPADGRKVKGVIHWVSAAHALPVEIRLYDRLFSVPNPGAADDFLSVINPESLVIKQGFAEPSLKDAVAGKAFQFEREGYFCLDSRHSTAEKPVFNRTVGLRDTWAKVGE

[27] = Inhibition of Escherichia coli RNA polymerase
[28] = tested on: Mycobacterium tuberculosis; assay: Antibacterial activity against Mycobacterium tuberculosis ATCC 27294 assessed as reduction in bacterial growth by LORA method; type: functional
Streptococcus pneumoniae [29] = assay: Antibacterial activity against Streptococcus pneumoniae B1 assessed as bacterial growth inhibition; type: functional
[30] = tested on: Mycolicibacterium smegmatis; assay: Antimycobacterial activity against Mycobacterium smegmatis assessed as microbial growth inhibition; type: functional
[31] = Inhibition of Bacterial MraY; set-up: species or system Bacteria
[32] = target: Hypoxanthine-guanine phosphoribosyltransferase (Homo sapiens, UniProt P00492); assay: Binding affinity to human HGPRT assessed as inhibition of constant
Sequence of Hypoxanthine-guanine phosphoribosyltransferase (P00492 whole entry): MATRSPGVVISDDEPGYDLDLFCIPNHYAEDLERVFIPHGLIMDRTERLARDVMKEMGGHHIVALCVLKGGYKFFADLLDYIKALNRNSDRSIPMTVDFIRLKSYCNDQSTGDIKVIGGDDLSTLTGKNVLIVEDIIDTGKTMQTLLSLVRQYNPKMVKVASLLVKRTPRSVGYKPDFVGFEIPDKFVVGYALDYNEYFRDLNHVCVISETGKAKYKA

[33] = tested on: Mycobacterium tuberculosis; assay: Antimycobacterial activity against Mycobacterium tuberculosis H37Rv assessed as reduction in microbial growth after 7 days by alamar blue assay; type: functional, organism-based; conditions: 168 h
[34] = tested on: Mycobacterium tuberculosis; assay: Antimycobacterial activity against Mycobacterium tuberculosis assessed as reduction in microbial growth; type: functional
Methionine--tRNA ligase = Methionine--tRNA ligase (Escherichia coli K-12, UniProt P00959); assay: Inhibition of Escherichia coli K12 methionyl tRNA synthetase
Sequence of Methionine--tRNA ligase (P00959 whole entry): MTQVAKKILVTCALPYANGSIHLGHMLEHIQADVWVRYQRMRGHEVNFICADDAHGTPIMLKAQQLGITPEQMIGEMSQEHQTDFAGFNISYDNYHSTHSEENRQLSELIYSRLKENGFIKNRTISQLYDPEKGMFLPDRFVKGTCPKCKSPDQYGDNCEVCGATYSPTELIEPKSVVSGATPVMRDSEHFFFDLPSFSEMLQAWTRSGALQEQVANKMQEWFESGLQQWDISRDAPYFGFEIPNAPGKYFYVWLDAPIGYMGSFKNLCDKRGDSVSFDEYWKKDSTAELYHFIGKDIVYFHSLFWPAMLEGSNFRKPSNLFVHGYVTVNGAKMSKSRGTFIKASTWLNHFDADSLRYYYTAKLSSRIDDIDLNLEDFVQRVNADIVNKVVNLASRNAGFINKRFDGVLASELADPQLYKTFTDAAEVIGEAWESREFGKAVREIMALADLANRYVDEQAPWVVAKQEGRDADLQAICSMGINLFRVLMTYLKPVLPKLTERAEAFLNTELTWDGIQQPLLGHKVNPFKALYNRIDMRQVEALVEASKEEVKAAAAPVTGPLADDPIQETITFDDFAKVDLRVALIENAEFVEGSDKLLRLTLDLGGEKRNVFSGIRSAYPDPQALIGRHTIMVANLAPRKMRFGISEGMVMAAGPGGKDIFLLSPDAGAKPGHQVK

Mycobacterium avium [35] = assay: Antimycobacterial activity against Mycobacterium avium ATCC 25291 assessed as reduction in microbial growth; type: functional

Compound: CSCC[C@H](NC(=O)NC(Cc1cccc(O)c1)C(=O)O)C(=O)NC(CN(C)C(=O)[C@@H](N)C(Cc1cccc(O)c1)NCC(=O)O)C(=O)N/C=C1/C[C@@H](O)[C@H](n2ccc(=O)[nH]c2=O)O1 (stereo partly drawn)
- MIC (Pseudomonas aeruginosa [1]): 1.5 µg/mL (≈ 1.64 µM)
- MIC (Pseudomonas aeruginosa [2]): 0.1 µg/mL (≈ 0.109 µM)

Compound: CCC(C)C(N)C(=O)NS(=O)(=O)OC[C@H]1O[C@@H](CCn2nnc(-c3ccccc3)n2)[C@H](O)[C@@H]1O (stereo partly drawn)
- Ki [3]: 1.3 µg/mL (≈ 2.61 µM)

Compound: NC(=O)c1ncn([C@@H]2O[C@H](CO)[C@@H](O)[C@H]2O)c1O [MIZORIBINE]
- Ki [4]: 100000 nM

Compound: CCC(C)C(N)C(=O)NS(=O)(=O)OC[C@H]1O[C@@H](CCn2nnc(-c3ccc(Oc4ccccc4)cc3)n2)[C@H](O)[C@@H]1O (stereo partly drawn)
- MIC [5]: 2 µg/mL (≈ 3.39 µM)
- MIC (Streptococcus pneumoniae [6]): 2 µg/mL (≈ 3.39 µM)
- MIC (Enterococcus faecium [7]): 2 µg/mL (≈ 3.39 µM)
- MIC (Streptococcus pyogenes [8]): 2 µg/mL (≈ 3.39 µM)
- MIC (Staphylococcus aureus [9]): 2 µg/mL (≈ 3.39 µM)
- MIC (Moraxella catarrhalis): 2 µg/mL (≈ 3.39 µM)
- MIC (Haemophilus influenzae): 2 µg/mL (≈ 3.39 µM)
- MIC (Enterococcus faecalis): 2 µg/mL (≈ 3.39 µM)
- MIC [10]: 2 µg/mL (≈ 3.39 µM)
- MIC (Bacillus subtilis [11]): 2 µg/mL (≈ 3.39 µM)
- MIC (Klebsiella pneumoniae [12]): 2 µg/mL (≈ 3.39 µM)

Compound: CCC(C)CCCCCCCC/C=C/C(=O)N[C@H]1[C@H](O[C@@H]2O[C@@H](CO)[C@H](O)[C@H](O)[C@H]2NC(C)=O)O[C@H](C[C@@H](C)[C@H]2O[C@@H](N3CCC(=O)NC3=O)[C@H](O)[C@@H]2O)[C@H](O)[C@@H]1O (stereo partly drawn)
- MIC [13]: 3.1 µg/mL (≈ 3.73 µM)
- MIC (Bacillus subtilis [14]): 0.31 µg/mL (≈ 0.373 µM)
- MIC [15]: 10 µg/mL (≈ 12 µM)

Compound: CCC(C)CCCCCCCCCCC(=O)N[C@H]1[C@H](O[C@@H]2O[C@@H](CO)[C@H](O)[C@H](O)[C@H]2NC(C)=O)O[C@H](C[C@@H](C)[C@H]2O[C@@H](n3ccc(=O)[nH]c3=O)[C@H](O)[C@@H]2O)[C@H](O)[C@@H]1O (stereo partly drawn)
- MIC (Bacillus subtilis [14]): 0.1 µg/mL (≈ 0.12 µM)
- MIC (Bacillus subtilis [16]): 0.1 µg/mL (≈ 0.12 µM)
- LD50 [17]: 0.137 mg/kg

Compound: Cc1cn([C@H]2C[C@H](N=[N+]=[N-])[C@@H](COC(=O)C(=O)N[C@@H](CC(C)C)C(=O)O)O2)c(=O)[nH]c1=O
- MIC (Klebsiella pneumoniae [18]): 0.125 µg/mL (≈ 0.276 µM)

Compound: CSCC[C@H](N)C(=O)OC[C@H]1O[C@@H](n2cnc3c(N)ncnc32)[C@H](O)[C@@H]1O
- Ki [19]: 10900 nM
- MIC (Bacillus cereus): 32 µg/mL (≈ 80.3 µM)
- MIC (Escherichia coli): 0.5 µg/mL (≈ 1.25 µM)

Compound: C[C@H](NC(=O)N[C@@H](Cc1cccc(Cl)c1)C(=O)O)C(=O)N[C@H](C(=O)N/C=C1/C[C@@H](O)[C@H](n2ccc(=O)[nH]c2=O)O1)[C@H](C)NC(=O)[C@@H](N)Cc1ccc(O)cc1
- MIC (Pseudomonas aeruginosa [20]): 64 µg/mL (≈ 81.5 µM)

Compound: C[C@H](N)C(=O)N(C)C[C@H](NC(=O)[C@H](C)NC(=O)N[C@@H](Cc1c[nH]c2ccccc12)C(=O)O)C(=O)NCC1C[C@@H](O)[C@H](n2ccc(=O)[nH]c2=O)O1 (stereo partly drawn)
- MIC (Pseudomonas aeruginosa [21]): 64 µg/mL (≈ 91.5 µM)

Compound: CN1C[C@H](O)[C@@H](C(=O)O)N(C)C(=O)[C@@H]1[C@H](O[C@@H]1O[C@H](CN)[C@@H](O)[C@H]1O)[C@H]1O[C@@H](n2ccc(=O)[nH]c2=O)[C@H](O)[C@@H]1O [CAPRAZOL]
- MIC [22]: 3.13 µg/mL (≈ 5.44 µM)

Compound: CCCCCCCCCCCCC[C@@H](CC(=O)O[C@H]1CN(C)[C@@H]([C@H](O[C@H]2O[C@@H](CN)[C@H](O)[C@@H]2O)[C@H]2O[C@@H](n3ccc(=O)[nH]c3=O)[C@H](OS(=O)(=O)O)[C@@H]2O)C(=O)N(C)[C@@H]1C(=O)O)OC(=O)C[C@H](C)CC(=O)O[C@@H]1O[C@@H](C)[C@H](OC)[C@@H](OC)[C@H]1OC
- MIC (Streptococcus pyogenes [23]): 4 µg/mL
- MIC (Staphylococcus aureus [24]): 4 µg/mL
- MIC (Enterococcus faecium [25]): 4 µg/mL

Compound: CN1C(=O)[C@H]([C@H](O[C@H]2O[C@@H](CN)[C@H](O)[C@@H]2O)[C@H]2O[C@@H](n3ccc(=O)[nH]c3=O)[C@H](O)[C@@H]2O)N(C)CC=C1C(=O)O
- MIC (Mycobacterium avium [26]): 0.05 µg/mL (≈ 0.0897 µM)

Compound: NC(=O)CCC(N)COP(=O)(O)OC[C@H]1O[C@@H](n2cnc3c(N)ncnc32)[C@H](O)[C@@H]1O (stereo partly drawn)
- Ki (Glutamine--tRNA ligase): 280 nM

Compound: CO[C@H]1[C@@H](O)[C@H](n2ccc(=O)[nH]c2=O)O[C@@H]1[C@@H](O[C@@H]1OC(C(=O)N[C@H]2CCCCNC2=O)=C[C@@H](O)[C@H]1O)C(N)=O
- IC50 [27]: 100 nM
- MIC [28]: 100 µg/mL (≈ 176 µM)
- MIC (Streptococcus pneumoniae [29]): 12.5 µg/mL (≈ 21.9 µM)
- MIC [30]: 3 µg/mL (≈ 5.27 µM)
- Ki [31]: 0.01 µg/mL (≈ 0.0176 µM)

Compound: CCOC(=O)[C@H](Cc1ccccc1)NP(=O)(N[C@@H](Cc1ccccc1)C(=O)OCC)OCOCCN
- Ki [32]: 690 nM
- IC50 [33]: 5000 nM
- MIC [34]: 4.5 µM

Compound: CCC(C)C(N)C(=O)NS(=O)(=O)OC[C@H]1O[C@@H](n2cnc3c(N)nc(I)nc32)[C@H](O)[C@@H]1O (stereo partly drawn)
- IC50 (Methionine--tRNA ligase): 14 nM

Compound: CCCCCCCCCC[C@H](CC(=O)O[C@H]1CN(C)[C@@H]([C@@H](O[C@@H]2O[C@H](CN)[C@@H](O)[C@H]2O)[C@H]2O[C@@H](n3ccc(=O)[nH]c3=O)[C@H](O)[C@@H]2O)C(=O)N(C)[C@@H]1C(=O)O)OC(=O)C[C@H](C)CC(=O)O
- MIC (Mycobacterium avium [35]): 1.2 µg/mL
